Experimental data reported in publication PMC6225228, “Design, Synthesis and Evaluation of N-pyrazinylbenzamides as Potential Antimycobacterial Agents” (Molecules : A Journal of Synthetic Chemistry and Natural …, 2018).
≈ marks a conversion by molar mass, not a printed value. Like-named read-outs stand apart in the source and are kept apart here.

What was measured:
[1] = system: Mycobacterium tuberculosis H37Rv CNCTC My 331/88 (ATCC 27294); assay: Antimycobacterial microdilution MABA, M. tuberculosis; type: cell-based; conditions: for MIC: Mycobacterium tuberculosis, read-out: Mtb H37Rv ATCC 27294 MIC, Middlebrook 7H9 with OADC growth supplement, pH = 6.6, MABA
[2] = system: Mycobacterium smegmatis CCM 4622 (ATCC 607); assay: Antimycobacterial microdilution, M. smegmatis; type: cell-based; conditions: Mycolicibacterium smegmatis, read-out: M. smeg. ATCC 607 MIC
[3] = system: Staphylococcus aureus CCM 4516/08; assay: Antibacterial microdilution broth, SA; type: cell-based
[4] = system: M. avium ssp. avium CNCTC My 80/72 (ATCC 15769); assay: Antimycobacterial microdilution MABA, M. avium; type: cell-based, Mycobacterium avium; conditions: for MIC: Mycobacterium avium, ATCC15769, pH 6.6, read-out: M. avium ATCC 15769 MIC
Candida krusei E28 = assay: Antifungal microdilution broth, CK; type: cell-based; conditions: Pichia kudriavzevii, read-out: MIC CK
[5] = system: Aspergillus fumigatus 231; assay: Antifungal microdilution broth, AF; type: cell-based; conditions: read-out: MIC AF
[6] = system: Escherichia coli CCM 4517; assay: Antibacterial microdilution broth, EC; type: cell-based; conditions: Escherichia coli, read-out: MIC EC
Candida glabrata 20/I = assay: Antifungal microdilution broth, CG; type: cell-based; conditions: Nakaseomyces glabratus, 20/I, read-out: MIC CG
Candida tropicalis 156 = assay: Antifungal microdilution broth, CT; type: cell-based; conditions: read-out: MIC CT
[7] = system: Trichophyton interdigitale 445; assay: Antifungal microdilution broth, TI; type: cell-based; conditions: read-out: MIC TI
[8] = system: Enterococcus sp. J 14365/08; assay: Antibacterial microdilution broth, EF; type: cell-based; conditions: Enterococcus, read-out: MIC EF
[9] = system: Candida albicans ATCC 44859; assay: Antifungal microdilution broth, CA; type: cell-based; conditions: Candida albicans, read-out: MIC CA
[10] = system: Staphylococcus aureus H 5996/08 methicillin resistant; assay: microbe, parasite or virus in culture; type: cell-based; conditions: for MIC: Staphylococcus aureus, MRSA, read-out: MIC MRSA
Trichosporon asahii 1188 = assay: Antifungal microdilution broth, TA; type: cell-based; conditions: read-out: MIC TA
[11] = system: M. kansasii CNCTC My 235/80 (ATCC 12478); assay: Antimycobacterial microdilution MABA, M. kansasii; type: cell-based, Mycobacterium kansasii; conditions: for MIC: Mycobacterium kansasii, ATCC12478, pH 6.6, read-out: M. kans. ATCC 12478 MIC, Middlebrook 7H9 with OADC, pH 6.6, MABA
[12] = system: Staphylococcus epidermidis H 6966/08; assay: Antibacterial microdilution broth, SE; type: cell-based; conditions: read-out: MIC SE
[13] = system: Lichtheimia corymbifera 272; assay: Antifungal microdilution broth, LC; type: cell-based; conditions: read-out: MIC LC
[14] = system: Pseudomonas aeruginosa CCM 1961; assay: Antibacterial microdilution broth, PA; type: cell-based; conditions: Pseudomonas aeruginosa, read-out: MIC PA
[15] = Staphylococcus aureus, CCM4516, 24 h, read-out: MIC SA, 24 h
[16] = Staphylococcus aureus, CCM4516, 48 h, read-out: MIC SA, 48 h
[17] = Middlebrook 7H9 with OADC, pH 6.6, MABA
[18] = Aspergillus fumigatus, 231, 24 h
[19] = Aspergillus fumigatus, 231, 48 h
[20] = Trichophyton interdigitale, 445, 72 h
[21] = Trichophyton interdigitale, 445, 120 h
[22] = Trichosporon asahii, 1188, 24 h
[23] = Trichosporon asahii, 1188, 48 h
[24] = Staphylococcus epidermidis, H6966/08, 24 h
[25] = Staphylococcus epidermidis, H6966/08, 48 h
[26] = Lichtheimia corymbifera, 272, 24 h
[27] = Lichtheimia corymbifera, 272, 48 h
[28] = Staphylococcus aureus, CCM4516, read-out: MIC against S. aureus, time not stated

For `CC(=O)Oc1cccc(C(=O)Nc2cnc(Cl)cn2)c1` [Compound 2c-Ac], the “Mtb H37Rv ATCC 27294 MIC” value ([1]; Middlebrook 7H9 with OADC growth supplement, pH = 6.6, MABA) was >100 µg/mL, the MIC [1] was > 100 µg/mL and the MIC [2] was 250 µg/mL (≈ 857 µM). For the same molecule, the MIC ([3]; 24 h, read-out: MIC SA) was >125 µM, the MIC ([3]; 48 h, read-out: MIC SA) was >125 µM and the MIC [3, 15] was > 125 µM. For the same molecule, the MIC [3, 16] was > 125 µM, the “M. avium ATCC 15769 MIC” value [4, 17] was >100 µg/mL and the MIC [4] was > 100 µg/mL. The MIC (Candida krusei E28; E28, 24 h) was > 125 µM, the MIC (Candida krusei E28; E28, 48 h) was > 125 µM and the MIC [5, 18] was > 125 µM. For the same molecule, the MIC [5, 19] was > 125 µM, the MIC ([6]; CCM4517, 24 h) was > 125 µM and the MIC ([6]; CCM4517, 48 h) was > 125 µM. For the same molecule, the MIC (Candida glabrata 20/I; 24 h) was > 125 µM, the MIC (Candida glabrata 20/I; 48 h) was > 125 µM and the MIC (Candida tropicalis 156; Candida tropicalis, 156, 24 h) was > 125 µM. The MIC (Candida tropicalis 156; Candida tropicalis, 156, 48 h) was > 125 µM, the MIC [7, 20] was > 125 µM and the MIC [7, 21] was > 125 µM. For the same molecule, the MIC ([8]; SP.J14365/08, 24 h) was > 125 µM, the MIC ([8]; SP.J14365/08, 48 h) was > 125 µM and the MIC ([9]; ATCC44859, 24 h) was > 125 µM. For the same molecule, the MIC ([9]; ATCC44859, 48 h) was > 125 µM, the “MIC MRSA” value ([10]; 24 h) was >125 µM and the “MIC MRSA” value ([10]; 48 h) was >125 µM. The MIC ([10]; 24 h) was > 125 µM, the MIC ([10]; 48 h) was > 125 µM and the MIC (Trichosporon asahii 1188; [22]) was > 125 µM. The MIC (Trichosporon asahii 1188; [23]) was > 125 µM, the “M. kans. ATCC 12478 MIC” value [11, 17] was >100 µg/mL and the MIC [11] was > 100 µg/mL. For the same molecule, the MIC ([12]; 24 h) was >125 µM, the MIC ([12]; 48 h) was >125 µM and the MIC [12, 24] was > 125 µM. For the same molecule, the MIC [12, 25] was > 125 µM, the MIC [13, 26] was > 125 µM and the MIC [13, 27] was > 125 µM. The melting point was 184.1 to 184.6 °C, the MIC ([14]; CCM1961, 72 h) was > 125 µM and the MIC ([14]; CCM1961, 120 h) was > 125 µM.

For `COc1ccccc1C(=O)Nc1cnc(Cl)cn1` [Compound 2e], the MIC [1] was > 100 µg/mL, the MIC [2] was ≥ 500 µg/mL and the MIC [3, 15] was > 125 µM. The MIC [3, 16] was > 125 µM, the MIC [3, 28] was > 125 µM and the MIC [4] was > 100 µg/mL. For the same molecule, the MIC (Candida krusei E28; E28, 24 h) was > 125 µM, the MIC (Candida krusei E28; E28, 48 h) was > 125 µM and the MIC [5, 18] was > 125 µM. For the same molecule, the MIC [5, 19] was > 125 µM, the MIC ([6]; CCM4517, 24 h) was > 125 µM and the MIC ([6]; CCM4517, 48 h) was > 125 µM. The MIC (Candida glabrata 20/I; 24 h) was > 125 µM, the MIC (Candida glabrata 20/I; 48 h) was > 125 µM and the MIC (Candida tropicalis 156; Candida tropicalis, 156, 24 h) was > 125 µM. For the same molecule, the MIC (Candida tropicalis 156; Candida tropicalis, 156, 48 h) was > 125 µM, the MIC [7, 20] was > 125 µM and the MIC [7, 21] was > 125 µM. The MIC ([8]; SP.J14365/08, 24 h) was > 125 µM, the MIC ([8]; SP.J14365/08, 48 h) was > 125 µM and the MIC ([9]; ATCC44859, 24 h) was > 125 µM. The MIC ([9]; ATCC44859, 48 h) was > 125 µM, the MIC ([10]; 24 h) was > 125 µM and the MIC ([10]; 48 h) was > 125 µM. For the same molecule, the MIC (Trichosporon asahii 1188; [22]) was > 125 µM, the MIC (Trichosporon asahii 1188; [23]) was > 125 µM and the MIC [11] was > 100 µg/mL. The MIC [12, 24] was > 125 µM, the MIC [12, 25] was > 125 µM and the MIC [13, 26] was > 125 µM. The MIC [13, 27] was > 125 µM, the melting point was 141.2 to 142 °C and the MIC ([14]; CCM1961, 72 h) was > 125 µM. The MIC ([14]; CCM1961, 120 h) was > 125 µM.

In the case of `COc1ccc(C(=O)Nc2cnc(Cl)cn2)cc1` [Compound 2g], the MIC [1] was > 100 µg/mL, the MIC [2] was ≥ 500 µg/mL and the MIC [3, 15] was > 125 µM. For the same molecule, the MIC [3, 16] was > 125 µM, the MIC [3, 28] was > 125 µM and the MIC [4] was > 100 µg/mL. For the same molecule, the MIC (Candida krusei E28; E28, 24 h) was > 125 µM, the MIC (Candida krusei E28; E28, 48 h) was > 125 µM and the MIC [5, 18] was > 125 µM. The MIC [5, 19] was > 125 µM, the MIC ([6]; CCM4517, 24 h) was > 125 µM and the MIC ([6]; CCM4517, 48 h) was > 125 µM. For the same molecule, the MIC (Candida glabrata 20/I; 24 h) was > 125 µM, the MIC (Candida glabrata 20/I; 48 h) was > 125 µM and the MIC (Candida tropicalis 156; Candida tropicalis, 156, 24 h) was > 125 µM. The MIC (Candida tropicalis 156; Candida tropicalis, 156, 48 h) was > 125 µM, the MIC [7, 20] was > 125 µM and the MIC [7, 21] was > 125 µM. For the same molecule, the MIC ([8]; SP.J14365/08, 24 h) was > 125 µM, the MIC ([8]; SP.J14365/08, 48 h) was > 125 µM and the MIC ([9]; ATCC44859, 24 h) was > 125 µM. For the same molecule, the MIC ([9]; ATCC44859, 48 h) was > 125 µM, the MIC ([10]; 24 h) was > 125 µM and the MIC ([10]; 48 h) was > 125 µM. For the same molecule, the MIC (Trichosporon asahii 1188; [22]) was > 125 µM, the MIC (Trichosporon asahii 1188; [23]) was > 125 µM and the MIC [11] was > 100 µg/mL. For the same molecule, the MIC [12, 24] was > 125 µM, the MIC [12, 25] was > 125 µM and the MIC [13, 26] was > 125 µM. The MIC [13, 27] was > 125 µM, the melting point was 177.8 to 179 °C and the MIC ([14]; CCM1961, 72 h) was > 125 µM. For the same molecule, the MIC ([14]; CCM1961, 120 h) was > 125 µM.
